Source: patent publication US20080171709A1, “Pharmaceutical Composition Comprising An Antiviral Agent, An Antitumoral Agent Or An Antiparasitic Agent, And An Active Agent Selected Among Carveol, Thymol, Eugenol, Borneol,And Carvacrol” (priority 2005, published 2008)
Converted amounts (≈) assume the structure as drawn. Like-named read-outs stand apart in the source and are kept apart here.

Tests used:
[1] = tested on: P815 (murin mastocytoma) cell line; test: MTT cytotoxicity on P815 cell line; assay type: cell-based; settings: Mus musculus, P815, read-out: IC50 (concentration inducing cytotoxicity for 50% of treated tumor cells)
Description: (§1) […] tests were carried out on HEP (human larynx carcinoma), BSR (hamster kidney carcinoma) and P815 (murin mastocytoma) cell lines cultivated on DMEM medium (Dulbecco's modified eagles medium) supplemented with 5% of fetal bovine serum (Gibco BRL, France), 1% of penicillin- streptomycin-neomycin, 0.2% of sodium bicarbonate. These percentages are given as ratio of the weight to the global volume of the medium.
(§2) In these compositions, excipient is agar solution.
(§3) IC50 have been determined.

[2] = tested on: HEP, BSR and P815 cell lines; test: cells
Description: as §1, §2, §3

[3] = tested on: BSR (hamster kidney carcinoma) cell line; test: MTT cytotoxicity on BSR cell line; assay type: cell-based; settings: Mesocricetus auratus, read-out: IC50 (concentration inducing cytotoxicity for 50% of treated tumor cells)
Description: as §1, §2, §3

[4] = tested on: HEP (human larynx carcinoma) cell line; test: MTT cytotoxicity on HEP cell line; assay type: cell-based
Description: as §1, §2, §3

[5] = read-out: IC50 (concentration inducing cytotoxicity for 50% of treated tumor cells)

| IC50 ([2]; Mus musculus, P815, read-out: IC50 of doxorubicin used alone) [mg/L] | Structure (SMILES) | IC50 [1] [mg/L] | cytotoxic effects towards cell lines at the concentration used in the tested compositions [2] | IC50 [3] [mg/L] | IC50 [4, 5] [mg/L] | IC50 ([3]; BSR, carvacrol, thymol or carveol alone) [mg/L] | IC50 ([4]; read-out: IC50 (concentration inducing cytotoxicity for 50% of treated tumor cells), HEP, carvacrol, thymol or carveol alone) [mg/L] |
| --- | --- | --- | --- | --- | --- | --- | --- |
| – | C=C(C)C1CC=C(C)C(O)C1 (mixture of isomers) [Carveol, carveol] | 400 | without any cytotoxic effects | 400 | 400 | – | – |
| – | Cc1ccc(C(C)C)cc1O [Carvacrol, carvacrol] | 300 (≈ 2000 µM) | without any cytotoxic effects | – | – | 300 (≈ 2000 µM) | 300 (≈ 2000 µM) |
| 15 to 25 (≈ 27.6 to 46 µM) | COc1cccc2c1C(=O)c1c(O)c3c(c(O)c1C2=O)C[C@@](O)(C(=O)CO)C[C@@H]3O[C@H]1C[C@H](N)[C@H](O)[C@H](C)O1 [Doxorubicin, doxorubicin, reference compound] | 15 (≈ 27.6 µM) | – | 25 (≈ 46 µM) | 20 (≈ 36.8 µM) | – | – |
| – | Cc1ccc(C(C)C)c(O)c1 [Thymol, thymol] | 300 (≈ 2000 µM) | without any cytotoxic effects | 300 (≈ 2000 µM) | 300 (≈ 2000 µM) | – | – |
